Data as given in patent US20200069775A1, “BRAIN OSTEOCALCIN RECEPTOR AND COGNITIVE DISORDERS” (The Trustees of Columbia University in the City of New York, priority 2017, published 2020).
Entries after “also recorded” stand apart in the source; their conditions may differ.

Experiments:
[1] = system: mouse primary hindbrain neurons (MPHN); assay: Calcium flux in mouse primary hindbrain neurons; assay type: cell-based
Description: For calcium imaging, primary hindbrain neurons seeded on 12 mm coverslips were allowed the appropriate time to form structural networks. These cultures were washed with HBSS and loaded with 2.5 μM FURA-2, AM calcium indicator for 45 minutes at room temperature, according to the manufacturer's protocol. Cells were then washed to remove excess indicator and incubated for 30 minutes to allow internalized esters to become de-esterified. 30 ng/ml of osteocalcin was prepared with the control buffer of 1× HBBS supplemented with 10 mM HEPES buffer and 2 mM CaCl2. Using a Zeiss microscope with a perfusion system, coverslips were first perfused with control and osteocalcin. After each stimulation, cells were depolarized with 50 mM KCl to determine the percentage of live cells being imaged. All treatments were recorded using two-photon laser scanning microscopy by Prairie Technologies and analyzed by Z axis profile plotting using ImageJ.
(§1) To determine if osteocalcin acts directly on neurons to modulate neurotransmitter synthesis, several types of assays were performed. First, brainstem and midbrain explants from WT and Gprc6a^−/− mice were generated. […] Third, to further confirm that osteocalcin signals in neurons of the hindbrain, calcium flux in MPHN treated with undercarboxylated or carboxylated osteocalcin (FIG. 3F) was measured.

[2] = system: WT mice; assay: Contextual Fear Conditioning after acute hippocampal injection; assay type: in vivo, mouse
Description: FIG. 11. CREB activation by osteocalcin is functionally relevant. Contextual fear conditioning in 3.5 month old mice injected acutely with 10 ng recombinant uncarboxylated osteocalcin 24 hours prior to context exposure. 3 shocks of 0.55 mA were delivered to mice 1 min apart.
To determine whether these acute injections and corresponding activation of the CREB pathway are functionally relevant, Contextual Fear Conditioning (CFC), a hippocampus dependent task that assesses long term memory, was performed. Mice were injected acutely in both hemispheres with either PBS or 10 ng recombinant uncarboxylated osteocalcin.

[3] = system: Osteocalcin−/− embryos and adult offspring of Osteocalcin−/− mothers; assay: Osteocalcin injections in pregnant Osteocalcin−/− mothers, analysis of offspring; assay type: in vivo, mouse
Description: Osteocalcin−/−, Gprc6a−/−, Osteocalcin-mCherry, and Osteocalcin foxed mice have been previously described (Ducy et al., 1996, Nature 382:448-452; Oury et al., 2011, Cell 144:796-809). Mouse genotypes were determined by PCR. For all experiments, controls were littermate female WT, Cre-expressing, or flox/flox. All mice were maintained on a pure 129-Sv genetic background except for the inducible deletion Osteocalcin model (mix background: 25% C57/BL6 and 75% 129sv). For inducible gene deletion mice, tamoxifen was prepared in corn oil and injected intraperitoneally (IP) (1 mg/20g of body weight) over one week. For osteocalcin delivery to pregnant mice, IP injections (240 ng/day) were performed as soon as a plug was present daily until delivery (E0.5-E18.5). For osteocalcin or leptin infusion in adult Osteocalcin−/− or ob/ob mice, pumps (Alzet micro-osmotic pump, Model 1002) delivering osteocalcin (300 ng/hr), leptin (50 ng/hr), or vehicle were surgically installed subcutaneously in the backs of 3-month old mice. For the postnatal rescue of cognitive functions in Osteocalcin−/− mice, osteocalcin (10 ng/hour) or vehicle were delivered intrasubventricularly (icv) as previously described (Ducy et al., 2000, Cell 100:197-207). Leptin and osteocalcin content in sera and tissues were determined by ELISA.
Cresyl violet staining to visualize brain morphology was carried out by incubating 20 μm cryosections defatted with 1:1 chloroform:ethanol in cresyl violet acetate (1 g/L) overnight. The stain was differentiated using ethanol and xylene and mounted using DPX mounting medium for histology (Sigma).
To assess apoptosis in WT and Osteocalcin−/− brains, 20 μm cryostat sections were processed using theAPOPTAG® Fluorescein Direct In Situ Apoptosis Detection Kit (Millipore) according to manufacturer's protocol. Images were obtained using Leica DM 4000B, and Image J was used to quantify cell number and intensity of staining.
For western blotting, frozen hippocampi from E18.5 embryos were lysed and homogenized in 250 μl tissue lysis buffer (25 mM Tris HCl 7.5; 100 mM NaF; 10 mM Na4P2O7; 10 mmM EDTA; 1% NP 40). Samples were pooled together in threes by genotype to reduce variability. Proteins were transferred to nitrocellulose membranes and blocked with TBST-5% milk prior to overnight incubation with primary antibody in TBST-5% BSA. HRP-coupled secondary antibodies and ECL were used to visualize the signal.
To further evaluate the importance of maternal osteocalcin for the acquisition of spatial learning and memory in adult offspring, pregnant Osteocalcin^−/− mothers from E0.5 to E18.5 were treated with injections, once a day, of osteocalcin (240 ng/day). Osteocalcin was never injected in these females or their pups after delivery. […] Likewise, the number of apoptotic cells was reduced and the number of NeuN positive cells was increased compared to Osteocalcin^−/− embryos originating from Osteocalcin^−/− mothers that were not injected (FIG. 7I-J).

[4] = system: mouse primary hindbrain neurons (MPHN); assay: Gene expression in mouse primary hindbrain neurons (MPHN); assay type: cell-based; settings: osteocalcin 3 ng/ml, 2 or 4 hours; WT and Gprc6a−/− primary brainstem neuronal culture
Description: For gene expression studies, RNA was isolated from primary neurons or tissue using TRIZOL® (Invitrogen). cDNA synthesis was performed following a standard protocol from Invitrogen and qPCR analyses were done using specific quantitative PCR primers from SABiosciences (http://www.sabiosciences.com/RT2PCR.php).
For primary culture of hindbrain neurons, E14.5 embryos were obtained from matings of 129-Sv WT mice. Hindbrains were dissected out and collected in ice-cold filter sterilized HBSS buffered with 10 mM HEPES until dissection was complete, at which point they were finely chopped into 2 mm cubes, dissociated by trituration with a fire-polished Pasteur pipette and spun down at 4° C. Cells were then plated onto poly-D-lysine coated coverslips or dishes in Neurobasal medium supplemented with 2% B27, 0.25 mM Glutamax, 0.25 mM L-glutamine, penicillin G (50 U/ml), and streptomycin sulphate ([…]). Cultures were fed every 3-6 days with one half replacement medium without L-glutamine.
as §1

[5] = Osteocalcin−/− embryos, injected vs not injected Osteocalcin−/− mothers
[6] = mothers injected 240 ng/day once a day E0.5 to E18.5

osteocalcin: Recombinant osteocalcin bacterially produced, cleaved from the GST subunit; completely undercarboxylated at all three sites; full-length mouse osteocalcin (YLGASVPSPDPLEPTREQCELNPACDELSDQYGLKTAYKRIYGITI)
calcium fluxes [1]: induced changes in calcium fluxes | % freezing on Day 1 (CFC) ([2]; 10 ng injected 24 hours prior to context exposure): % freezing was the same for both groups | freezing behavior 24 hours after the initial shocks (CFC) ([2]; 10 ng injected acutely in both hemispheres, listed as recombinant uncarboxylated osteocalcin): increased freezing behavior as compared to controls; also recorded: increased freezing along with hyperexcitability | Caspase-3 cleaved protein level in the hippocampus (Western blot) ([3]; Osteocalcin−/− E18.5 embryos, injected vs not injected mothers): decrease in Caspase-3 cleaved protein level | number of NeuN positive cells [3, 5]: increased | number of apoptotic cells [3, 5]: reduced | number of apoptotic cells ([3]; Osteocalcin−/− embryos, injected vs not injected Osteocalcin−/− mothers, listed as Uncarboxylated osteocalcin): prevent this neuronal apoptosis | thickness defect in the CA3 and CA4 regions of the hippocampus ([3]; adult Osteocalcin−/− originating from Osteocalcin−/− mothers): rescue of the thickness defect | cerebral ventricle enlargement (cresyl violet) ([3]; brains of E18.5 Osteocalcin−/− embryos, injected mothers): rescue of the cerebral ventricle enlargement | anxiety or depression phenotypes of Osteocalcin−/− offspring [3, 6]: did not have any beneficial effect | deficit in learning and memory of Osteocalcin−/− offspring [3, 6]: rescued over two third of their deficit | Tph2 expression [4]: increased more than three-fold | decrease of GAD1 expression [4]: 65%
